Patent US10744128B2, “6-(5-membered heteroaryl)isoquinolin-3-yl-(5-membered heteroaryl) carboxamides and preparation and use thereof” (Samumed, LLC, priority 2017, dated 2020)
Where two headings read alike, the source gives them in different places.

Assays:
[1] = tested on: primary human fibroblasts derived from IPF patients (LL29 cells), α-smooth muscle actin; assay: Inhibition of fibrotic process: αSMA in TGF-β1 treated LL29 fibroblasts; format: cell-based; conditions: Homo sapiens, Fibroblast; for EC50: 96 h, LL29 cells, TGF-β1 20 ng/mL, 4 days, % cells positive for αSMA; for inhibition at 10 µM: read-out: percent inhibition at 10 μM
Method: Representative compounds were screened using primary human fibroblasts (derived from IPF patients) treated with TGF-β1 to determine their ability to inhibit the fibrotic process.
LL29 cells were plated at 1,500 cells/well in 70 μL/well F12 medium supplemented with 1% Fetal Bovine Serum. […] Wells treated with TGF-β1 and containing DMSO were used as positive control, and cells with only DMSO were negative control. […] Following incubation for 4 days, SYTOX green nucleic acid stain (Life Technologies [Thermo Fisher Scientific]) was added to the wells at a final concentration of 1 μM and incubated at room temperature for 30 min.

[2] = tested on: Wnt-responsive promoter (Sp5-Luc reporter) in SW480 colon carcinoma cells; assay: Sp5-Luc reporter gene screening assay for Wnt activity in SW480 cells; format: cell-based, human; conditions: Homo sapiens, 36 to 48 hours, luminescence
Source text: The screening assay for Wnt activity is described as follows. Reporter cell lines can be generated by stably transducing cancer cell lines (e.g., colon cancer) or primary cells (e.g., IEC-6 intestinal cells) with a lentiviral construct that includes a Wnt-responsive promoter driving expression of the firefly luciferase gene.
SW480 colon carcinoma cells were transduced with a lentiviral vector expressing luciferase with a human Sp5 promoter consisting of a sequence of eight TCF/LEF binding sites. SW480 cells stably expressing the Sp5-Luc reporter gene and a hygromycin resistance gene were selected by treatment with 150 μg/mL of hygromycin for 7 days. These stably transduced SW480 cells were expanded in cell culture and used for all further screening activities. […] For Sp5-Luc reporter gene assays, the cells were plated at 4,000 cells/well in 384-well plates with a DMEM medium containing 1% fetal bovine serum, and 1% Penicillin-Streptomycin and incubated for 36 to 48 hours at 37° C. and 5% CO2. Following incubation, 15 μl of BriteLite Plus luminescence reagent (Perkin Elmer) was added to each well of the 384-well assay plates. The plates were placed on an orbital shaker for 2 min and then luminescence was quantified using the Envision (Perkin Elmer) plate reader. Readings were normalized to DMSO only treated cells, and normalized activities were utilized for EC50 calculations using the dose-response log (inhibitor) vs. response −variable slope (four parameters) nonlinear regression feature available in GraphPad Prism 5.0 (or Dotmatics).

[3] = tested on: SW480 colon carcinoma cells; assay: Cell viability assay (CellTiter-Glo) in SW480 cells; format: cell-based, human; conditions: Homo sapiens, 96 h, four days
Method: SW480 colon carcinoma cells were transduced with a lentiviral vector expressing luciferase with a human Sp5 promoter consisting of a sequence of eight TCF/LEF binding sites. SW480 cells stably expressing the Sp5-Luc reporter gene and a hygromycin resistance gene were selected by treatment with 150 µg/mL of hygromycin for 7 days. These stably transduced SW480 cells were expanded in cell culture and used for all further screening activities.
For the Cell Viability Assays, the cells were plated at 2,000 cells/well in 384-well plates with a DMEM medium containing 1% fetal bovine serum, and 1% Penicillin-Streptomycin and incubated for […] at 37° C. and 5% CO2. Eight replicates of DMSO-treated cells served as controls and cells treated with compound were performed in duplicate.
After incubation, 10 μL of CellTiter-Glo (Promega) was added to each well allowed to incubate for approximately 12 minutes. This reagent “results in cell lysis and generation of a luminescent signal proportional to the amount of ATP present. The amount of ATP is directly proportional to the number of cells present in culture, in agreement with previous reports. The CellTiter-Glo® Assay generates a “glow-type” luminescent signal, produced by the luciferase reaction (Promega.com)”.

IL-6 = IL-6 inhibition in LPS-stimulated human peripheral blood mononuclear cells (HTRF); format: cell-based; conditions: Homo sapiens, PBMC; for EC50: huPBMCs, LPS 50 ng/mL, 22 hours, IL-6 HTRF; for inhibition at 10 µM: read-out: percent inhibition at 10 μM
Method: Fresh Normal PB MNC (Catalog # PB001, AllCells, Alameda, Calif.) were shipped overnight at 4° C. and resuspended in Roswell Park Memorial Institute (RPMI) 1640 Medium, with GlutaMAX Supplement (Catalog #61870127, ThermoFisher Scientific, Waltham, Mass.) supplemented with 1% Penicillin-Streptomycin (Catalog #15140163, ThermoFisher Scientific, Waltham, Mass.) and 1% fetal bovine serum (FBS) (Catalog #16140089, ThermoFisher Scientific, Waltham, Mass.) assay media.
Fresh normal human peripheral blood mononuclear cells (huPBMCs) were resuspended in 1% FBS-RPMI assay media with 1% Penicillin-Streptomycin 1% to a cell concentration of 1×10e6 cells/mL. […] 50 ng/mL of Lipopolysaccharides from Escherichia coli 0111:B4 (Catalog #L5293-2ML, Sigma-Aldrich, St. Louis, Mo.) was added after 2 hours and cells were incubated for another 22 hours at 37° C.-5% CO2. After 22 hour incubation, a mixture of anti-IL6 XL665 and anti-IL-6 Cryptate diluted in reconstitution buffer (Catalog #62IL6PEC, Cisbio Inc., Bedford, Mass.) was added to each well. Following incubation for 3 hours at room temperature, Homogeneous Time-Resolved Fluorescence (HTRF) was measured using the Envision (Perkin Elmer, Shelton, Conn.) at 665 nm and […]. The ratio of fluorescence at 665 nm to 620 nm was used as a readout for IL-6 quantification. All samples were processed in duplicate. Readings were normalized to DMSO treated cells and normalized activities were utilized for EC50 calculations. EC50 was determined using software generated by Dotmatics Limited (Windhill Bishops Stortford Herts, UK) using the Levenberg-Marquardt 4 parameter fitting procedure with finite different gradients.

[4] = biological target: recombinant DYRK1A kinase (Homo sapiens (Human), UniProt Q13627); assay: DYRK1A kinase assay (Ser/Thr 18 peptide Z-lyte, FRET)
Method: Each compound was dissolved in DMSO as a 10 mM stock and used to prepare compound source plates.
This is a non-radioactive assay using fluorescence resonance energy transfer (FRET) between coumarin and fluorescein to detect kinase activity which is represented as a ratio of coumarin emission/fluorescein emission.
The mixture was allowed to incubate with the representative compounds for one hour at room temperature. All reactions were performed in duplicate. Unphosphorylated (“0% Control”) and phosphorylated (“100% control”) forms of Ser/Thr 18 served as control reactions. Additionally, an 11-point dose-response curve of Staurosporine (1 uM top) was run to serve as a positive compound control.
After incubation, Development Reagent A was diluted in Development Buffer then added to the reaction and allowed to further incubate for one hour at room temperature.
Dose-response curves were generated and inhibitory concentration (IC50) values were calculated using non-linear regression curve fit in the Dotmatics' Studies Software (Bishops Stortford, UK).

recombinant GSK3β kinase = recombinant GSK3β kinase (Homo sapiens (Human), UniProt P49841); assay: GSK3β kinase assay (Ser/Thr 09 peptide Z-lyte, FRET); format: biochemical
[5] = DYRK1A kinase, 30 μM ATP, one hour, method calls values IC50
[6] = GSK3β kinase, 46 μM ATP, one hour, method calls values IC50

Sequence of recombinant GSK3β kinase (P49841 whole entry): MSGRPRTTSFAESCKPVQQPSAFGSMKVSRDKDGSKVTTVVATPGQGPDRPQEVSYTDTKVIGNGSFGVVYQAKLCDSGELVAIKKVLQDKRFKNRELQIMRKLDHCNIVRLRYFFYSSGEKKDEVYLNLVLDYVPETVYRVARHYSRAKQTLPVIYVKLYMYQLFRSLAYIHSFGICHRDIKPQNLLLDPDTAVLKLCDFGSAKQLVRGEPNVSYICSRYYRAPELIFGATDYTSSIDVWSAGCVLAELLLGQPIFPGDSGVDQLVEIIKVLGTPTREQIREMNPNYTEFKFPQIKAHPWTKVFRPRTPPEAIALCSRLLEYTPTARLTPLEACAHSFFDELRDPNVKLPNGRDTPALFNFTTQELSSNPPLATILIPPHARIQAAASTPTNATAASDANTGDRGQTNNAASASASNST

CC(C)N1CCC(n2cc(C(=O)Nc3cc4cc(-c5cn(C)nn5)ccc4cn3)nn2)CC1 [Compound 35, 1-(1-Isopropylpiperidin-4-yl)-N-(6-(1-methyl-1H-1,2,3-triazol-4-yl)isoquinolin-3-yl)-1H-1,2,3-triazole-4-carboxamide]
EC50 [1]: 635 nM | EC50 [2]: 111 nM | EC50 [3]: 306 nM | EC50 (IL-6): 2110 nM | EC50 [4, 5]: 10 nM | EC50 (recombinant GSK3β kinase; [6]): 295 nM

Cn1cc(-c2ccc3cnc(NC(=O)c4coc(C5CCNCC5)n4)cc3c2)nn1 [Compound 36, N-(6-(1-Methyl-1H-1,2,3-triazol-4-yl)isoquinolin-3-yl)-2-(piperidin-4-yl) oxazole-4-carboxamide]
EC50 [1]: 596 nM | EC50 [2]: 114 nM | EC50 [3]: 399 nM | EC50 (IL-6): 2540 nM | EC50 [4, 5]: 19 nM | EC50 (recombinant GSK3β kinase; [6]): 458 nM

CN1CCC(c2nc(C(=O)Nc3cc4cc(-c5cn(C)nn5)ccc4cn3)co2)CC1 [Compound 37, N-(6-(1-Methyl-1H-1,2,3-triazol-4-yl)isoquinolin-3-yl)-2-(1-methylpiperidin-4-yl)oxazole-4-carboxamide]
EC50 [1]: 248 nM | EC50 [2]: 105 nM | EC50 [3]: 179 nM | EC50 (IL-6): 2660 nM | EC50 [4, 5]: 24 nM | EC50 (recombinant GSK3β kinase; [6]): 342 nM

CC(C)N1CCC(c2nc(C(=O)Nc3cc4cc(-c5cn(C)nn5)ccc4cn3)co2)CC1 [Compound 38, 2-(1-Isopropylpiperidin-4-yl)-N-(6-(1-methyl-1H-1,2,3-triazol-4-yl)isoquinolin-3-yl)oxazole-4-carboxamide]
EC50 [1]: > 10000 nM | inhibition at 10 µM [1]: 3.9% | EC50 [2]: 555 nM | EC50 [3]: 1630 nM | EC50 (IL-6): > 10000 nM | inhibition at 10 µM (IL-6): 5.3% | EC50 [4, 5]: 180 nM | EC50 (recombinant GSK3β kinase; [6]): 1350 nM

Cn1cc(C(=O)Nc2cc3cc(-c4cncn4C)ccc3cn2)cn1 [Compound 40, 1-Methyl-N-(6-(1-methyl-1H-imidazol-5-yl)isoquinolin-3-yl)-1H-pyrazole-4-carboxamide]
EC50 [1]: > 10000 nM | inhibition at 10 µM [1]: 23.2% | EC50 [2]: 109 nM | EC50 [3]: 442 nM | EC50 (IL-6): 751 nM | EC50 [4, 5]: 4 nM | EC50 (recombinant GSK3β kinase; [6]): 1830 nM

CCn1cc(C(=O)Nc2cc3cc(-c4cncn4C)ccc3cn2)cn1 [Compound 41, 1-Ethyl-N-(6-(1-methyl-1H-imidazol-5-yl)isoquinolin-3-yl)-1H-pyrazole-4-carboxamide]
EC50 [1]: 122 nM | EC50 [2]: 37 nM | EC50 [3]: 102 nM | EC50 (IL-6): 618 nM | EC50 [4, 5]: 2 nM | EC50 (recombinant GSK3β kinase; [6]): 850 nM

CC(C)n1cc(C(=O)Nc2cc3cc(-c4cncn4C)ccc3cn2)cn1 [Compound 42, 1-Isopropyl-N-(6-(1-methyl-1H-imidazol-5-yl)isoquinolin-3-yl)-1H-pyrazole-4-carboxamide]
EC50 [1]: 2500 nM | EC50 [2]: 602 nM | EC50 [3]: 999 nM | EC50 (IL-6): > 10000 nM | inhibition at 10 µM (IL-6): 37.1% | EC50 [4, 5]: 23 nM | EC50 (recombinant GSK3β kinase; [6]): 9990 nM

[2H]c1nc(NC(=O)c2cnn(C(C)C)c2)cc2cc(-c3cncn3C)ccc12 [Compound 43, 1-Isopropyl-N-(6-(1-methyl-1H-imidazol-5-yl)isoquinolin-3-yl-1-d)-1H-pyrazole-4-carboxamide]
EC50 [1]: 151 nM | EC50 [2]: 48 nM | EC50 [3]: 83 nM | EC50 (IL-6): 251 nM | EC50 [4]: 2 nM | EC50 (recombinant GSK3β kinase): 3070 nM

Cn1cncc1-c1ccc2cnc(NC(=O)c3cnn(C4CC4)c3)cc2c1 [Compound 44, 1-Cyclopropyl-N-(6-(1-methyl-1H-imidazol-5-yl)isoquinolin-3-yl)-1H-pyrazole-4-carboxamide]
EC50 [1]: 115 nM | EC50 [2]: 37 nM | EC50 [3]: 94 nM | EC50 (IL-6): 356 nM | EC50 [4, 5]: 1 nM | EC50 (recombinant GSK3β kinase; [6]): 1660 nM

CC(C)Cn1cc(C(=O)Nc2cc3cc(-c4cncn4C)ccc3cn2)cn1 [Compound 45, 1-Isobutyl-N-(6-(1-methyl-1H-imidazol-5-yl)isoquinolin-3-yl)-1H-pyrazole-4-carboxamide]
EC50 [1]: 88 nM | EC50 [2]: 55 nM | EC50 [3]: 111 nM | EC50 (IL-6): 414 nM | EC50 [4, 5]: 1 nM | EC50 (recombinant GSK3β kinase; [6]): 1190 nM

Cn1ccc(C(=O)Nc2cc3cc(-c4cncn4C)ccc3cn2)n1 [Compound 46, 1-Methyl-N-(6-(1-methyl-1H-imidazol-5-yl)isoquinolin-3-yl)-1H-pyrazole-3-carboxamide]
EC50 [1]: 1530 nM | EC50 [2]: 1250 nM | EC50 [3]: 2180 nM | EC50 (IL-6): > 10000 nM | inhibition at 10 µM (IL-6): 46.1% | EC50 [4, 5]: 5 nM | EC50 (recombinant GSK3β kinase; [6]): 1770 nM

Cn1cc(CC(=O)Nc2cc3cc(-c4cncn4C)ccc3cn2)cn1 [Compound 47, N-(6-(1-methyl-1H-imidazol-5-yl)isoquinolin-3-yl)-2-(1-methyl-1H-pyrazol-4-yl)acetamide]
EC50 [1]: 94 nM | EC50 [2]: 556 nM | EC50 [3]: 607 nM | EC50 (IL-6): 388 nM | EC50 [4, 5]: 3 nM | EC50 (recombinant GSK3β kinase; [6]): 29 nM

Cn1cnc(C(=O)Nc2cc3cc(-c4cncn4C)ccc3cn2)c1 [Compound 48, 1-Methyl-N-(6-(1-methyl-1H-imidazol-5-yl)isoquinolin-3-yl)-1H-imidazole-4-carboxamide]
EC50 [1]: > 10000 nM | inhibition at 10 µM [1]: 6.7% | EC50 [2]: 1160 nM | EC50 [3]: 3550 nM | EC50 (IL-6): > 10000 nM | inhibition at 10 µM (IL-6): 17.8% | EC50 [4, 5]: 18 nM | EC50 (recombinant GSK3β kinase; [6]): 3380 nM

CC(C)n1cnc(C(=O)Nc2cc3cc(-c4cncn4C)ccc3cn2)c1 [Compound 49, 1-Isopropyl-N-(6-(1-methyl-1H-imidazol-5-yl)isoquinolin-3-yl)-1H-imidazole-4-carboxamide]
EC50 [1]: 86 nM | EC50 [2]: 35 nM | EC50 [3]: 73 nM | EC50 (IL-6): 285 nM | EC50 [4, 5]: 2 nM | EC50 (recombinant GSK3β kinase; [6]): 1340 nM

Cn1cncc1-c1ccc2cnc(NC(=O)c3cn(C4CCOCC4)cn3)cc2c1 [Compound 50, N-(6-(1-Methyl-1H-imidazol-5-yl)isoquinolin-3-yl)-1-(tetrahydro-2H-pyran-4-yl)-1H-imidazole-4-carboxamide]
EC50 [1]: 1180 nM | EC50 [2]: 100 nM | EC50 [3]: 833 nM | EC50 (IL-6): 3280 nM | EC50 [4, 5]: 21 nM | EC50 (recombinant GSK3β kinase; [6]): 4490 nM
